Literature values in patent US20250367112A1, “DRUG DELIVERY COMPOSITION FOR PROMOTING TISSUE REGENERATION AND KIT FOR DRUG DELIVERY COMPRISING SAME” (T&R BIOFAB CO., LTD., priority 2023, published 2025).
Structures can show the parent of a compound that is named as a salt. Where two headings read alike, the source gives them in different places.

in vivo half-life (epidural injection): 4.2 ± 1 h | in vivo half-life (intravenous injection): 1.8 ± 0.7 h
Structure (SMILES): CCCN1CCCC[C@H]1C(=O)Nc1c(C)cccc1C [Ropivacaine HCl]
